Results: article PMC12418644, “Production, optimization and characterization of esterase isolated from a new endophytic Trichoderma afroharzianum strain AUMC 16,433 and its applications in dye decolorization” (Microbial Cell Factories, 2025)

Test system: T1, T. afroharzianum esterase (purified extracellular esterase)
T1 construct: 43 kDa by SDS-PAGE and gel filtration; monomeric
Experiment: p-nitrophenol release at […] nm, Lineweaver-Burk plot
Format: biochemical, Trichoderma afroharzianum
Details: 50 mM Tris pH 8, 37 °C (standard assay), 1-10 mM substrate

- Km: 3.33 mM
SMILES: CC(=O)Oc1ccc([N+](=O)[O-])cc1 [p-NPA, p-nitrophenyl acetate]
